How the values were obtained:
[1] = system: melanoma cells; settings: melanoma cells versus melanocytes; cited from earlier work
[2] = system: melanoma; settings: syngeneic mice, human melanoma xenografts; cited from earlier work
[3] = system: ATF2; settings: cited from earlier work; for ATF2 nuclear exclusion: melanoma cells
[4] = system: SCC9 cells; assay: ATF2 mitochondrial localization, immunofluorescent staining of coverslip-grown cells; format: cell-based; settings: for cells with ATF2 accumulation at the mitochondria: SCC9, 5 μM etoposide overnight, 3 replicate coverslips
Experimental: FIG. 1A) is an image depicting control, 5 μM etoposide-treated (ETO, overnight treatment), UVC-treated (20 J/m^2), ionizing radiation-treated (IR, 5Gy), or 40 ng/ml leptomycin B (LMB) and ETO co-treated SCC9 cells grown on coverslips were immunofluorescently stained for HSP60,ATF2 or DNA. Immunostained control and ETO panels represent 89±4% and 64±11%, respectively, of the cells from 3 independent replicate coverslips per condition (n>100 cells counted per replicate). […] C) is a photograph depicting coverslip-grown SCC9 cells that were co-treated with 40 ng/ml leptomycin B (LMB) and ETO overnight, and were subsequently fixed and immunofluorescently stained as indicated. D) is a gel depicting SCC9 cells transfected with the Jun2 promoter-luciferase construct and assayed for luciferase activity prior to (Control) or after ETO treatment. E) is a bar graph depicting luciferase activity of mitochondria (M) purified from ETO-treated SCC9 cells subject to proteolysis protection assay with titrated concentrations of trypsin: 0.2 (1), 0.1 (2), 0.05 (3), 0.025 (4), or 0.0125 (5) μg in the absence or presence of 1% Triton X-100 (TX) detergent. Scale bars represent 10 μm.
Following indicated treatments, coverslip-grown cells were fixed in fixation buffer containing 4% formaldehyde and 2% sucrose in phosphate buffered saline (PBS) for 20 minutes at room temperature. After fixation, coverslips were rinsed twice in PBS and permeabilized in permeabilization buffer (0.4% Triton X-100 (TX-100)/0.4% bovine serum albumin (BSA) in PBS) for 20 minutes. Primary antibodies were applied at 1:250 dilution in staining buffer (0.1% TX-100/0.1% BSA in PBS) overnight at 4° C. in a humid chamber. Coverslips were subsequently subject to 5 standing washes in wash buffer (0.2% TX-100/0.2% BSA in PBS, 5 minutes per wash). Secondary antibodies (Alexa Fluor secondary 350, 488 or 568, Invitrogen) were applied at 1:250 dilution in staining buffer for 2-3 hours at room temperature in a humid chamber in the dark. Prior to mounting with Vectorshield containing DAPI (Vector Laboratories, CA), coverslips were washed twice additionally in wash buffer. Immunofluorescent analysis was conducted on an Olympus TH4-100 fluorescent microscope. At least 3 Z-planes per field were captured and analyzed using Slidebook V.4.1, and Z-projection images of average intensity were constructed using ImageJ V.1.43u.

[5] = system: Jun2 promoter; assay: Jun2 promoter-luciferase assay (ATF2 transcriptional activity); format: cell-based; settings: for Jun2-luciferase activity: SCC9
Experimental: C) is a photograph depicting coverslip-grown SCC9 cells that were co-treated with 40 ng/ml leptomycin B (LMB) and ETO overnight, and were subsequently fixed and immunofluorescently stained as indicated. D) is a gel depicting SCC9 cells transfected with the Jun2 promoter-luciferase construct and assayed for luciferase activity prior to (Control) or after ETO treatment. E) is a bar graph depicting luciferase activity of mitochondria (M) purified from ETO-treated SCC9 cells subject to proteolysis protection assay with titrated concentrations of trypsin: 0.2 (1), 0.1 (2), 0.05 (3), 0.025 (4), or 0.0125 (5) μg in the absence or presence of 1% Triton X-100 (TX) detergent. Scale bars represent 10 μm.
FIG. 3A) is an image depicting coverslip-grown SCC9 cells treated with 1 or 5 μM PKCε translocation inhibitor overnight, and immunofluorescently stained with indicated antibodies. B) is a photograph depicting coverslip-grown SCC9 cells treated with 10 nM siRNA targeting PKCε overnight were immunofluorescently stained with indicated antibodies. […] F) is a photograph depicting coverslip-grown SCC9 cells were transfected with HA-tagged wildtype ATF2 (WT), ATF2T52A or ATF2T52E, and subsequently immunofluorescently stained with indicated antibodies. G-H) is a series of bar graphs that show quantitation of (Left) SCC9 cells transfected with Jun2 promoter-luciferase construct and empty vector (EV) or caPKCε, assayed for luciferase activity after ETO treatment. (Right) SCC9 cells stably knocked down for ATF2 with a 3′-UTR-targeted shRNA, reconstituted with Jun2 promoter-luciferase construct and ATF2 (WT), ATF2T52A or ATF2T52E and subsequently assayed for luciferase activity. Scale bars represent 10 μm.

[6] = molecular target: T1, PKCε (Homo sapiens, UniProt Q02156); assay: In vitro kinase assay, PKCε phosphorylation of GST-tagged ATF2 50-100 peptide; format: biochemical
T1 sequence (Q02156 1-737): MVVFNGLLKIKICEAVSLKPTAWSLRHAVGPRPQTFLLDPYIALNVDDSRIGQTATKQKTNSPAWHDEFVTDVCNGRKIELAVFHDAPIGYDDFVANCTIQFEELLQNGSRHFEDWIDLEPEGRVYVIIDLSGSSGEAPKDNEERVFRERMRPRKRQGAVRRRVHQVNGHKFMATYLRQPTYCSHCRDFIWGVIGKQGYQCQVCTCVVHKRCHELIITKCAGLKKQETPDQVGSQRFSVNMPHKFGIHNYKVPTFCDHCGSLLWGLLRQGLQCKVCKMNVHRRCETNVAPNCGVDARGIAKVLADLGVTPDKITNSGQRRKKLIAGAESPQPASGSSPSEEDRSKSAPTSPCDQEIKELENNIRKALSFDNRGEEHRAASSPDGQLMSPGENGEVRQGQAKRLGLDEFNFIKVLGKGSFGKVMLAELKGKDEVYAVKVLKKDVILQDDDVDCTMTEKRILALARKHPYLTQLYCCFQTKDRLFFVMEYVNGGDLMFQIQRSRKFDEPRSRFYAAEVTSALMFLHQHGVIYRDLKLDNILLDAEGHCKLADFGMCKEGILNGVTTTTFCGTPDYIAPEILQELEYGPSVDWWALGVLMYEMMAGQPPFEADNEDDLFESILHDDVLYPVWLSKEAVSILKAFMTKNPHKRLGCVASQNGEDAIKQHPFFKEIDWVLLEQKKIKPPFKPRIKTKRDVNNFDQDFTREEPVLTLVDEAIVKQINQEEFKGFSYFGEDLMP
Experimental: To determine whether Thr52, the predicted PKCε site for phosphorylation of ATF2, regulates mitochondrial translocation of ATF2, phosphorylation of ATF2 by PKCε in vitro was assessed, as well as the localization of ATF2^T52A (a non-phosphorylatable alanine phosphomutant) and ATF2^T52E (a glutamic acid phosphomimic). […] This phosphorylation is inhibited upon addition of PKCε catalytic inhibitor, Gö6850 (FIG. 3E). […] Collectively, these findings establish that ATF2 mitochondrial localization is regulated by PKCε through phosphorylation at T52.

[7] = system: SCC9 cells; assay: HK1 co-localization with mitochondria (immunostaining and MitoTracker); format: cell-based; settings: SCC9, 5 μM etoposide overnight
Source text: The arrowheads indicate HA-positive cells. Scale bars represent 10 μm.

[8] = system: ATF2 pT52; assay: Immunoblot densitometry of pT52/Total ATF2; format: cell-based; settings: SCC9, etoposide treatment
Source text: B) Control or ATF2 -knocked down LU1205 cells were subject to immunoblot analysis with indicated antibodies. […] D) is an image showing control or ETO-treated coverslip-grown LU1205, 501Mel or UACC903 cells immunofluorescently stained with indicated antibodies.

[9] = system: SCC9 cells; assay: Annexin-V / propidium iodide staining and FACS analysis (cell death); format: cell-based; settings: SCC9, 5 μM, overnight, representative FACS plot
Experimental: Cells were stained with Annexin-V and subject to FACS analysis. n=10,000 cells per replicate; 3 replicates per condition were performed. •: p=0.0001; #: p<0.0001.
For FACS analyses, n=10,000 cells per replicate over 3 independent replicates.

[10] = system: PKCε pS729; assay: Immunoblot of pS729 PKCε (active PKCε); format: cell-based; settings: SCC9, 5 μM overnight

## ATF2 50-60 peptide: 10 amino acid long peptide derived from ATF2 (amino acids 50-60), contains T52 (EMTLKFGPARN; UniProt P15336 50-60, looked up, fragment)
[1]
  sensitization to apoptosis: sensitized melanoma cells (but not melanocytes) to apoptosis
[2]
  melanoma growth: inhibit melanoma growth in syngeneic mice
[3]
  ATF2 transcriptional activity: inhibit ATF2 transcriptional activity
  ATF2 nuclear exclusion: caused nuclear exclusion of ATF2

## CCC(=C/[C@H](C)C/C=C/C(C)=C/[C@@H](C)C(=O)[C@@H](C)[C@H](O)[C@@H](C)C/C(C)=C/C(=O)O)/C=C/[C@@H]1OC(=O)C=C[C@@H]1C [leptomycin B]
[4]; SCC9, 40 ng/ml leptomycin B with ETO
  mitochondrial accumulation of ATF2 following etoposide treatment: prevented mitochondrial accumulation of ATF2
[4]; SCC9, leptomycin B pre-treatment 40 ng/ml 6 hours, then 5 μM PKCε-i
  ATF2 mitochondrial translocation following inhibition of PKCε: efficiently blocked

## CN(C)CCCn1cc(C2=C(c3c[nH]c4ccccc34)C(=O)NC2=O)c2ccccc21 [Gö6850]
[5]
  Jun2-luciferase activity: reduce Jun2-luciferase activity to similar extents as knockdown of ATF2
[6]
  PKCε phosphorylation of WT ATF2 peptide: inhibited

## ATF2 50-100 peptide: 50 amino acid long peptide derived from ATF2 (amino acids 50-100), contains T52 (EMTLKFGPARNDSVIVADQTPTPTRFLKNCEEVGLFNELASPFENEFKKAS; UniProt P15336 50-100, looked up, fragment)
[1]
  sensitization to apoptosis: sensitized melanoma cells (but not melanocytes) to apoptosis
[2]
  melanoma growth: inhibit melanoma growth in syngeneic mice
[3]
  ATF2 transcriptional activity: inhibit ATF2 transcriptional activity
  ATF2 nuclear exclusion: caused nuclear exclusion of ATF2

## COc1cc([C@@H]2c3cc4c(cc3[C@@H](O[C@@H]3O[C@@H]5CO[C@@H](C)O[C@H]5[C@H](O)[C@H]3O)[C@H]3COC(=O)[C@H]23)OCO4)cc(OC)c1O [etoposide]
[7]
  HK1 co-localization with mitochondria: enhanced
[8]
  levels of pT52: lower
[4]
  cells with ATF2 accumulation at the mitochondria: ~64%
[4]; listed as ETO
  cells with ATF2 accumulation at the mitochondria: 64±11%
[5]
  Jun2-luciferase activity: reduce Jun2-luciferase activity to similar extents as knockdown of ATF2
[5]; SCC9, after ETO treatment
  reduction of luciferase activity driven by the Jun2 promoter: ~50%
[9]
  Annexin V-negative (AV−) percentage: 89.5%
  Annexin V-positive (AV+) percentage: 11.5%
[10]
  PKCε phosphorylation on Ser729: decreased

— patent US20120276122A1, “METHODS FOR DIAGNOSIS AND TREATMENT OF CELLULAR PROLIFERATIVE DISORDERS” (Sanford-Burnham Medical Research Institute, priority 2010, published 2012)
